Assay results as given in patent publication US20230052893A1, “A SYNERGISTIC BACTERICIDE AND BACTERIOSTATIC ORGANIC SANITIZING/DISINFECTANT/CLEANING FORMULATION” (UNIVERSIDAD DE CONCEPCIÓN, priority 2020, published 2023).

What was measured:
Pseudomonas syringae = assay: MIC and MBC against agronomical pest; format: cell-based; settings: buffer alone; 24 hours
Protocol: (§1) In summary 100 μl of inoculum suspension was added into 96 wells in plates, using the following concentrations: 0.037-14.8% w/v acetate buffer and 0.043-17.31% w/v propionate buffer; 100 μl water (fungus) or culture medium (bacteria) and 10 μl of inoculum suspension at a final concentration of 1×10^5 UFC/ml. An incubation of 24 hours at ±25° C. was performed, assays was made by triplicate. The antimicrobial effect was evaluated as follows: B. cinerea, a germinated conidia counting was made; and P. syringae, a minimal inhibitory concentration (MIC) was firstly made through presence/absence of turbidity, and from the concentrations in absence of turbidity 100 μl was taken to be transferred to a culture medium without the antimicrobial formulation and an incubation of 24 hours at room temperature was carried out to assay the minimal bactericide concentration (MBC).

Botrytis cinerea = assay: Inhibition of conidia germination; format: cell-based; settings: 24 hours
Protocol: as §1

[1] = system: E. coli ATCC 25932, L. monocytogenes ATCC 19115; Staphylococcus aureus ATCC 6538P, Salmonella enterica ATCC 13076; assay: MIC-MBC in planktonic cells, the four pathogens together; format: cell-based; settings: buffer used alone; range over the four pathogens; 18-20 hrs exposure
Protocol: The efficacy of the formulation was evaluated through minimal inhibitory concentration (MIC) and minimal bactericide concentration (MBC) against pathogens E. coli ATCC 25932, L. monocytogenes ATCC 19115; Staphylococcus aureus ATCC 6538P, Salmonella enterica ATCC 13076. […] The range of disinfectant concentrations was 0.037-5.17% w/v to acetate buffer and 0.043-6.06% w/v to propionate buffer. These concentrations are obtained from a stock solution which is diluted with filtered water.

[2] = system: Salmonella enterica ATCC 13076 biofilm; assay: CDC biofilm reactor, biofilm on stainless steel coupons; format: cell-based; settings: 250 ppm, 30 minutes contact
Protocol: (§2) Tests on bacterial biofilms were also made to the pathogen strains, which were performed as follows: stainless steel coupons (type 316) were washed, installed on a support within a glass vessel and autoclaved at 121° C. by 20 minutes. To evaluate the disinfectant effect over a stablished biofilm to each separate bacteria, 3 ml of a concentration of 0.5 Mc Farland was inoculated within a vessel and then the same was incubated by 6, 12, 24 and 48 hours at 16° C. After each time of incubation supports containing coupons were removed and transferred to Falcon tubes of 50 ml containing the present synergistic disinfectant formulation at the following concentrations, DS1: 15% w/v (ratio acetate:propionate, 6.86:1) and DS2: 35% w/v (ratio acetate:propionate, 6.86:1). Peracetic acid was used (PAA) as control at concentrations of 250 ppm, the contact with the present synergistic disinfectant formulation or peracetic acid with supports containing biofilms was kept by 30 minutes. To perform a counting, an aliquot was taken, seeded into trypticase agar and incubated at 30° C. by 24 h, finally a counting of adhered cells was made. FIGS. 1 to 4 showing bacteria concentrations obtained to different times after 30 minutes of treatment using the above mentioned disinfectant formulations and peracetic acid as control to the following pathogens: L. monocytogenes ATCC 19115 (FIG. 1); E. coli ATCC 25932 (FIG. 2), Salmonella enterica ATCC 13076.L. (FIG. 3); and Staphylococcus aureus ATCC 6538P (FIG. 4).

[3] = system: Staphylococcus aureus ATCC 6538P biofilm; assay: as above; format: cell-based; settings: 250 ppm, 30 minutes contact
Protocol: as §2

[4] = system: E. coli ATCC 25932 biofilm; assay: as above; format: cell-based, Escherichia coli; settings: 250 ppm, 30 minutes contact
Protocol: as §2, with “FIGS. 1 to 4 showing bacteria concentrations obtained to different times after 30 minutes of treatment using the above mentioned disinfectant formulations and peracetic acid as control to the following pathogens: L. monocytogenes ATCC 19115 (FIG. 1); E. coli ATCC 25932 (FIG. 2), Salmonella enterica ATCC 13076.L. (FIG. 3); and Staphylococcus aureus ATCC 6538P (FIG. 4).” left out

[5] = system: L. monocytogenes ATCC 19115 biofilm; assay: as above; format: cell-based, Listeria monocytogenes; settings: 250 ppm, 30 minutes contact
Protocol: as §2, with “FIGS. 1 to 4 showing bacteria concentrations obtained to different times after 30 minutes of treatment using the above mentioned disinfectant formulations and peracetic acid as control to the following pathogens: L. monocytogenes ATCC 19115 (FIG. 1); E. coli ATCC 25932 (FIG. 2), Salmonella enterica ATCC 13076.L. (FIG. 3); and Staphylococcus aureus ATCC 6538P (FIG. 4).” left out

pathogen disease = assay: Disease incidence in inoculated fruits, 21-days aged fruits (fruit not stated)
Description: Fruits having similar, size, form and color and having no visual damage by fungi were selected. To perform assays a 1-2 mm deep wound was made on the selected fruit by a needle and 10^5 UFC/ml B. cinerea and Penicillium spp. (to different samples, independent test) were inoculated through the same wound under sterility conditions, fruits was not disinfected prior to the inoculation procedures. Assays was made by triplicate on 6 units submitted to visual inspection during the treatment, which were equidistantly located therebetween in Petri plates of 100×15 mm and exposed to a disinfectant treatment (Different proportions and concentrations) spraying on the fruit 0.2 ml of the different synergistic proportion of the formulation, finally an incubation at 4° C. was allowed.
Four acetate/propionate mixtures (proportions) were tested, 17.2:1, 6.86:1, 1.72:1 and 0.043:1; for each of them two or three concentrations were tested. Treatments: Treatment A/Treatment 1: 3.38% w/v mixture acetate/propionate buffers. Treatment B/Treatment 2: 11.25% w/v mixture acetate/propionate buffers. Treatment C: 25% w/v mixture acetate/propionate buffers. Treatment D/Negative Control: Fruits with wound immersed in water. […]
Assays were evaluated to days 0 (control), 7, 14 and 21, a counting of fruits showing pathogen signs was made to determined incidence. […]

[6] = system: mesophyll aerobics and enterobacteria; assay: Disinfectant effect on non-inoculated meats, the 3 types of meats together; settings: 2.5% Sodium Acetate; different meats, during test days
Protocol: Assays to evaluate antimicrobial effect on the surface of beef, chicken meat and salmon meat was performed. […] The growth of bacteria Escherichia coli was allowed in a TSB culture medium by 24 h at 35° C.
Disinfecting effect on a total mesophyll aerobic and enterobacteria microorganism counting was evaluated to initial non inoculated (E. coli) meat. Also, a concentration of 10^1 UFC/g of E. coli was inoculated and then the disinfectant effect was evaluated on such pathogen microorganism counting.
Meat (beef, chicken and salmon) was purchased the same date in which the assay was arranged and was kept under storing conditions at 4° C. up to using the same. Prior to initiating assays pieces of 5 grams, pieces were randomly selected to each treatment, and a) pieces were independently inoculated with 0.2 ml of culture comprising the above mentioned bacteria by separate and 2 ml was applied to the treatments to be defined below or b) pieces were only chopped and 2 ml of treatment was applied:
Meat pieces (inoculated or non-inoculated) with its respective treatments was transferred to tubes of 50 mL under conditions of sterility and stored at 4° C. up to its final evaluation. Assays were made by triplicate.
Antimicrobial activity evaluation was performed to 0, 3, 8 and 12 post-treatment days. […] Colonies were counted at 24 and 48 hours, depending the medium to be used to the counting.

Compound: acetate buffer
- MBC (Pseudomonas syringae): 3.69 % w/v
- Inhibition of germination (%) (Botrytis cinerea; Acetate 2.22 % w/v, adjusted mortality media): 0.3%
- Inhibition of germination (%) (Botrytis cinerea; Acetate 5.17 % w/v): 7.4%
- Inhibition of germination (%) (Botrytis cinerea; Acetate 7.4 % w/v): 8.1%
- Concentration needed by separate to eliminate the pathogens (MBC) [1]: 0.74-3.69 % w/v

Compound: CC(=O)OO [peracetic acid]
- Elimination of biofilm ([2]; 24-hours aged biofilms): fully eliminate
- Reduction of biofilm ([2]; biofilm after 6 and 12 hours): completely reduced
- Elimination of biofilm ([3]; 24-hours aged biofilms): fully eliminate
- Reduction of biofilm ([3]; biofilm after 6 and 12 hours): completely reduced
- Elimination of biofilm ([4]; 24-hours aged biofilms): fully eliminate
- Reduction of biofilm ([4]; biofilm after 6 and 12 hours): completely reduced
- Elimination of biofilm ([5]; 24-hours aged biofilms): fully eliminate
- Reduction of biofilm ([5]; biofilm after 6 and 12 hours): completely reduced

Compound: benzalkonium chloride
- Time for which pathogen disease / incidence is inhibited (pathogen disease): 42 days

Compound: CC(=O)[O-].[Na+] [sodium acetate, Sodium Acetate]
- Aerobic mesophilic and enterobacterial counts [6]: close to the negative control

Compound: CCC(=O)O [Propionate, propionate buffer]
- inhibition at 2.6 % strength (Botrytis cinerea; Botrytis cinerea, Propionate 2.6 % w/v): 5.6%
- inhibition at 6.06 % strength (Botrytis cinerea; Botrytis cinerea, Propionate 6.06 % w/v): 18.1%
- inhibition at 8.65 % strength (Botrytis cinerea; Botrytis cinerea, Propionate 8.65 % w/v): 21.2%
- Concentration needed by separate to eliminate the pathogens (MBC) [1]: 0.43-3.46 % w/v
